{"source": "patent US11304944B2", "about": "“MetAP2 inhibitors and methods of treating obesity” (SynDevRx, Inc., priority 2013, dated 2022)", "system": "DIO Levin rats", "assay": "In vivo testing DIO Levin rats: weight changes, food consumption, insulin, leptin levels", "settings": "for Final BW: after 68 days, 60% fat diet", "description": "CKD-732 as referred to herein is the hemitartrate salt of the following structure:\nTest articles were administered subcutaneously on an every 4 day (q4d) schedule in a diet-induced obesity (DIO) Levin-DS rat model. […] A dietary intervention (Standard Chow, Labdiet 5001; 3.4 kcal/g) was included to compare to the drug interventions. Upon arrival at three weeks of age, the male rats received ad libitum pellets of Harlan Diet TD.06414, 60% of calories from fat, 21% of calories from carbohydrate; 5.1 kcal/g. Prior to dosing the rats were randomized into groups of three animals with an average body weight of 595 gm. […] Compound 1 in the form of the hemitartrate and CKD-732 in the form of the hemitartrate were dissolved in ethanol prior to dilution with vehicle. All doses were administered at a volume of 5.0 ml/kg. […] On day 1, first dose, the rats were 14 weeks of age. Also on day 1, Group 2 was switched from the high fat diet to a standard chow diet; the remaining groups were maintained on a high fat diet for the duration of the study.\nAnimals were weighed every other day. Food consumption was measured weekly. On an approximately weekly basis throughout the study, blood samples were taken for assessment of serum chemistries including glucose and insulin. On Day 48 all rats underwent a 4 hour fasted Oral Glucose Tolerance Test (OGTT). Animals were dosed orally (per os, PO) at 8 mL/kg 25% glucose (2 g/kg). On day 68, gross pathology was performed to determine body composition.", "key": {"[1]": {"settings": "0.6 mg/kd (so in the source) q4d sc"}}, "data": [{"substance": "poly[HPMA-co-MA-GFLG-N-(trans-4-aminocyclohexyl)carbamoylfumagillol] [Compound 16]", "values": [{"measurement": "Avg. Insulin Day 7", "setting": "0.3 mg/kg q4d sc", "result": 2.27, "unit": "ng/mL"}, {"measurement": "Avg. Insulin Day 15", "setting": "0.3 mg/kg q4d sc", "result": 1.65, "unit": "ng/mL"}, {"measurement": "Avg. Insulin Day 23", "setting": "0.3 mg/kg q4d sc", "result": 1.66, "unit": "ng/mL"}, {"measurement": "Avg. Insulin Day 48", "setting": "0.3 mg/kg q4d sc", "result": 1.70, "unit": "ng/mL"}, {"measurement": "Avg. Insulin Pre-dosing", "setting": "0.3 mg/kg q4d sc", "result": 1.76, "unit": "ng/mL"}, {"measurement": "Group Average Food Consumption Day 1-8", "setting": "0.3 mg/kg q4d sc", "result": 125.2, "unit": "g"}, {"measurement": "Group Average Food Consumption Day 9-15", "setting": "0.3 mg/kg q4d sc", "result": 125.9, "unit": "g"}, {"measurement": "Group Average Food Consumption Day 16-23", "setting": "0.3 mg/kg q4d sc", "result": 128.2, "unit": "g"}, {"measurement": "Group Average Food Consumption Day 24-30", "setting": "0.3 mg/kg q4d sc", "result": 129.3, "unit": "g"}, {"measurement": "Group Average Food Consumption Day 31-36", "setting": "0.3 mg/kg q4d sc", "result": 122.4, "unit": "g"}, {"measurement": "Group Average Food Consumption Day 37-43", "setting": "0.3 mg/kg q4d sc", "result": 131.9, "unit": "g"}, {"measurement": "Group Average Food Consumption Day 44-50", "setting": "0.3 mg/kg q4d sc", "result": 135.6, "unit": "g"}, {"measurement": "Group Average Food Consumption Day 51-57", "setting": "0.3 mg/kg q4d sc", "result": 134.5, "unit": "g"}, {"measurement": "Group Average Food Consumption Day 58-63", "setting": "0.3 mg/kg q4d sc", "result": 134.2, "unit": "g"}, {"measurement": "Group Average Food Consumption Day 63-68", "setting": "0.3 mg/kg q4d sc", "result": 57.6, "unit": "g"}, {"measurement": "Leptin Levels Day 29", "setting": "0.3 mg/kg q4d sc", "result": 3.30}, {"measurement": "Leptin Levels Pre-dose", "setting": "0.3 mg/kg q4d sc", "result": 2.53}, {"measurement": "Leptin Levels, Day 29, % Change from Baseline", "setting": "0.3 mg/kg q4d sc", "result": 30.3, "unit": "%"}, {"measurement": "Final BW", "setting": "0.3 mg/kg q4d sc", "result": 727.3, "unit": "g"}, {"measurement": "Avg. Insulin Day 7", "setting": "[1]", "result": 2.09, "unit": "ng/mL"}, {"measurement": "Avg. Insulin Day 15", "setting": "[1]", "result": 1.38, "unit": "ng/mL"}, {"measurement": "Avg. Insulin Day 23", "setting": "[1]", "result": 1.72, "unit": "ng/mL"}, {"measurement": "Avg. Insulin Day 48", "setting": "[1]", "result": 1.91, "unit": "ng/mL"}, {"measurement": "Avg. Insulin Pre-dosing", "setting": "[1]", "result": 2.95, "unit": "ng/mL"}, {"measurement": "Group Average Food Consumption Day 1-8", "setting": "[1]", "result": 121.2, "unit": "g"}, {"measurement": "Group Average Food Consumption Day 9-15", "setting": "[1]", "result": 101.0, "unit": "g"}, {"measurement": "Group Average Food Consumption Day 16-23", "setting": "[1]", "result": 109.7, "unit": "g"}, {"measurement": "Group Average Food Consumption Day 24-30", "setting": "[1]", "result": 122.1, "unit": "g"}, {"measurement": "Group Average Food Consumption Day 31-36", "setting": "[1]", "result": 125.8, "unit": "g"}, {"measurement": "Group Average Food Consumption Day 37-43", "setting": "[1]", "result": 116.6, "unit": "g"}, {"measurement": "Group Average Food Consumption Day 44-50", "setting": "[1]", "result": 118.2, "unit": "g"}, {"measurement": "Group Average Food Consumption Day 51-57", "setting": "[1]", "result": 123.1, "unit": "g"}, {"measurement": "Group Average Food Consumption Day 58-63", "setting": "[1]", "result": 130.7, "unit": "g"}, {"measurement": "Group Average Food Consumption Day 63-68", "setting": "[1]", "result": 45.9, "unit": "g"}, {"measurement": "Leptin Levels Day 29", "setting": "1 mg/kg q4d sc", "result": 4.53}, {"measurement": "Leptin Levels Pre-dose", "setting": "1 mg/kg q4d sc", "result": 4.67}, {"measurement": "Leptin Levels, Day 29, % Change from Baseline", "setting": "1 mg/kg q4d sc", "result": "−2.9", "unit": "%"}, {"measurement": "Final BW", "setting": "1.0 mg/kg q4d sc", "result": 668.6, "unit": "g"}, {"measurement": "lower body weight than rats on the standard chow diet", "setting": "3 mg/kg Q4D, end of the study", "result": 6.2, "unit": "%"}, {"measurement": "lower body weight than the vehicle control", "setting": "3 mg/kg Q4D, end of the study", "result": 22.1, "unit": "%"}, {"measurement": "Avg. Insulin Day 7", "setting": "3 mg/kg q4d sc", "result": 0.66, "unit": "ng/mL"}, {"measurement": "Avg. Insulin Day 15", "setting": "3 mg/kg q4d sc", "result": 0.54, "unit": "ng/mL"}, {"measurement": "Avg. Insulin Day 23", "setting": "3 mg/kg q4d sc", "result": 1.26, "unit": "ng/mL"}, {"measurement": "Avg. Insulin Day 48", "setting": "3 mg/kg q4d sc", "result": 1.08, "unit": "ng/mL"}, {"measurement": "Avg. Insulin Pre-dosing", "setting": "3 mg/kg q4d sc", "result": 1.49, "unit": "ng/mL"}, {"measurement": "Group Average Food Consumption Day 1-8", "setting": "3 mg/kg q4d sc", "result": 97.3, "unit": "g"}, {"measurement": "Group Average Food Consumption Day 9-15", "setting": "3 mg/kg q4d sc", "result": 63.2, "unit": "g"}, {"measurement": "Group Average Food Consumption Day 16-23", "setting": "3 mg/kg q4d sc", "result": 123.4, "unit": "g"}, {"measurement": "Group Average Food Consumption Day 24-30", "setting": "3 mg/kg q4d sc", "result": 108.7, "unit": "g"}, {"measurement": "Group Average Food Consumption Day 31-36", "setting": "3 mg/kg q4d sc", "result": 102.6, "unit": "g"}, {"measurement": "Group Average Food Consumption Day 37-43", "setting": "3 mg/kg q4d sc", "result": 105.5, "unit": "g"}, {"measurement": "Group Average Food Consumption Day 44-50", "setting": "3 mg/kg q4d sc", "result": 129.9, "unit": "g"}, {"measurement": "Group Average Food Consumption Day 51-57", "setting": "3 mg/kg q4d sc", "result": 115.2, "unit": "g"}, {"measurement": "Group Average Food Consumption Day 58-63", "setting": "3 mg/kg q4d sc", "result": 128.0, "unit": "g"}, {"measurement": "Group Average Food Consumption Day 63-68", "setting": "3 mg/kg q4d sc", "result": 43.3, "unit": "g"}, {"measurement": "Leptin Levels Day 29", "setting": "3 mg/kg q4d sc", "result": 1.36}, {"measurement": "Leptin Levels Pre-dose", "setting": "3 mg/kg q4d sc", "result": 2.47}, {"measurement": "Leptin Levels, Day 29, % Change from Baseline", "setting": "3 mg/kg q4d sc", "result": "−45.0", "unit": "%"}, {"measurement": "Final BW", "setting": "3.0 mg/kg q4d sc", "result": 604.7, "unit": "g"}, {"measurement": "Avg. Insulin Day 7", "setting": "6 mg, q7d sc", "result": 1.96, "unit": "ng/mL"}, {"measurement": "Avg. Insulin Day 15", "setting": "6 mg, q7d sc", "result": 1.00, "unit": "ng/mL"}, {"measurement": "Avg. Insulin Day 23", "setting": "6 mg, q7d sc", "result": 1.11, "unit": "ng/mL"}, {"measurement": "Avg. Insulin Day 48", "setting": "6 mg, q7d sc", "result": 1.32, "unit": "ng/mL"}, {"measurement": "Avg. Insulin Pre-dosing", "setting": "6 mg, q7d sc", "result": 3.06, "unit": "ng/mL"}, {"measurement": "Group Average Food Consumption Day 1-8", "setting": "6 mg, q7d sc", "result": 105.2, "unit": "g"}, {"measurement": "Group Average Food Consumption Day 9-15", "setting": "6 mg, q7d sc", "result": 48.3, "unit": "g"}]}]}
